Experimental data reported in a melting point compilation (Tetko et al.; mined from patent text by program, amines drawn as free bases though some values may be those of a salt).

Compound	melting point
Cc1cc2n(n1)-c1ccc(Cl)cc1C(c1ccccc1)=NC2	105 to 107 °C
COc1ccc(C2CCN(c3c(C)c(C)c4c(c3C)[C@@H](c3ccc(C)cc3)C(C)(C)O4)CC2)cc1OC	102 to 106 °C
COC(=O)c1ccc(CO)nc1C1=NC(C)(C(C)C)C(=O)N1 (configuration not stated)	115 to 118 °C
CN(C)S(=O)(=O)c1cc([N+](=O)[O-])c(N)c([N+](=O)[O-])c1	169 to 170 °C
O=[N+]([O-])c1cc(F)c(N2CCCCC2)cc1Cl	70 °C
NS(=O)(=O)CCCSc1ccc2ncc(Cl)n2n1	136 to 137 °C
Cc1cc(-c2c(C)ccc(C(=S)OC(C)(C)C)c2C)on1	102 to 103 °C
O=C1CC2(CCCC2)C(O)C(=O)N1CCCCN1CCN(c2nsc3ccccc23)CC1 (configuration not stated)	151 °C
O=[N+]([O-])C=C1CN=C(c2ccccc2)c2cc(Cl)sc2N1	154 to 156 °C
S=c1[nH]ccn1OCc1cccnc1	128 to 129 °C
CCn1nc(Br)c([N+](=O)[O-])c1Br	119 to 121 °C
CCOC(=O)C1=C(COCC2COC(C)(C)O2)NC(C)=C(C(=O)OC)C1c1cccc(Cl)c1Cl (configuration not stated)	135 to 137 °C
Cc1nc2ccc(Cl)nn2c1Br	146 to 148 °C
C=CC1=C(C)c2cc3[nH]c(cc4nc(cc5[nH]c(cc1n2)c(C)c5CCC(=O)OCCN(C)C)C(CCC(=O)OCCN(C)C)=C4C)c(C)c3C=C	187 to 191 °C
NC(=O)c1ncc(Cl)cc1N	152 to 156 °C
OC(c1ccccc1)(c1ccncc1)c1ccc(F)cc1 (configuration not stated)	189 to 192 °C
Cc1nn(-c2cc(N)c(Cl)cc2F)c(Cl)c1Br	113 to 116 °C
COc1cc(OC)c(C2=CCN(C)CC2)c(OC)c1	112 to 114 °C
O=C(CC12CC3CC(CC(C3)C1)C2)Nc1c(Cl)ccc2nc(N3CCNCC3)ccc12	280 to 283 °C
CC(C)c1cnn2c(O)cc(O)nc12	242 to 243 °C
O=[N+]([O-])c1cc2c(Nc3ccc(F)c(Cl)c3)ncnc2cc1OC1CCCC1	230 °C

Compound	melting point
COc1c(C)c2c(c(O)c1C/C=C(\C)C(CC(=O)O)OC)C(=O)OC2 (configuration not stated)	133 to 135 °C
CNc1nsnc1-c1c(Cl)cccc1Cl	145 to 146 °C
COc1cc(C)c2c(c1OC)CCC1C(=O)N(C)C(=O)C21 (configuration not stated)	167 to 169 °C
CCc1[nH]c(=O)[nH]c(=O)c1N1CCN(Cc2ccccc2)CC1	255 to 256 °C
COC(=O)C1C=CCN2C(=O)C(C)(CCI)C(=O)N12 (configuration not stated)	86 to 87 °C
CC1(C)COP(N(C2CC(C)(C)NC(C)(C)C2)C2CC(C)(C)NC(C)(C)C2)OC1	156 °C
CN1CCC(=O)C(C(c2ccc(F)cc2)c2ccc(F)cc2)C1 (configuration not stated)	127 to 129 °C
Cc1ccc(C)n1CCC1SCCC(=O)NC1C(N)=O (configuration not stated)	181 to 183 °C
CNc1cccc(NC(=O)CO)c1C#N	160 to 162 °C
O=c1[nH]nc2n1CCc1ccccc1C2	253 to 261 °C
O=C(O)c1cc(Cl)cc2c1CCCC2	130 to 140 °C
CCCCCN(CCCCC)C(=O)[C@H]1Cc2c([nH]c3ccccc23)CN1	157 to 158 °C
CC(C)Oc1nc2cc(-n3ccc(=O)cc3)c([N+](=O)[O-])cc2nc1OC(C)C	217 to 219 °C
CCNC(=O)n1nc(Oc2ccc(F)cc2[N+](=O)[O-])cc1C	81 to 84 °C
COC(=O)c1cc(Br)cc(-c2ccc3c(c2)C(C)(C)CCC3(C)C)c1	88 °C
CC(C)(C)c1cc(C(C)(C)C)c(OP2OCCN2C(C)(C)C)c(C(C)(C)C)c1 (configuration not stated)	73 to 74 °C
Fc1cc(-c2ncon2)ccc1CBr	87.3 °C
OCc1ccc(-c2ccc(-c3cn([C@H]4CN5CCC4CC5)nn3)cc2)cc1	250 °C
CC(=O)OC1CCC2(C)C(=CCC3C4=CCC(C(C)=O)C4(C)CCC32)C1 (configuration not stated)	205 to 208 °C
CC=CCC(O)C(=O)c1ccccc1 (configuration not stated)	83 to 85 °C

Next, values leading:

melting point	Compound
125 to 126 °C	COCO[C@H]1C(=O)Nc2ccccc2S[C@H]1c1ccc(OC)cc1
190 to 191 °C	COc1ccccc1-n1c(=O)[nH]c2c(C(N)=O)nc(Nc3cccc(O)c3)nc21
82 to 85 °C	CCN1C(=O)CCCc2cc(Nc3ncc(Cl)c(Nc4ccccc4-n4cccn4)n3)c(OC)cc21
149 to 151 °C	CCc1cn(C2CC(O)C(CSCc3ccccc3)O2)c(=O)[nH]c1=O (configuration not stated)
225 to 226 °C	Cc1ccc(-c2ccc3cc(C(=O)Nc4ccc(CN(C)C5CCOCC5)cc4)n(C)c3c2)cc1
138 to 139 °C	CCn1nnc(C(C=O)=C(c2ccc(F)cc2)c2ccc(F)cc2)n1
129 to 132 °C	CN(C)c1ccc(NC(=O)N(Cc2ccco2)C[C@H]2CC[C@H](CN(Cc3ccco3)C(=O)Nc3ccc(N(C)C)cc3)CC2)cc1
11 °C	CC(C)(C)[N+]([O-])=Cc1ccc(OCc2ccccc2)cc1
212 °C	CN(CCOc1ccc(C=C2SC(=O)NC2=O)cc1)c1nccs1
248 to 250 °C	O=C1CCC(N2Cc3c(OCc4ccc(Cn5ccnc5)cc4)cccc3C2=O)C(=O)N1 (configuration not stated)
304 to 306 °C	O=C1CC(c2ccc(O)cc2)=Nc2ccc(N3CCCC3)cc21
129 to 133 °C	O=[N+]([O-])c1cc(N=Nc2ccc(S(=O)(=O)F)cc2)cc(Cl)c1O
64 °C	CNC(=O)[C@@H]1C[C@H](OC)CN1S(=O)(=O)c1ccc(Cl)c(COc2cccc3c(-n4ccnc4)cc(C)nc23)c1Cl
132 to 133 °C	COc1cc(C(=O)NCc2ccccc2)cc(NC(=O)c2ccccc2)n1
166 to 167 °C	COc1cccc(-c2nc3n(n2)Cc2cc(OC)ccc2-3)c1
213 °C	Cc1cc(-c2ccc(Cl)c(Cl)c2)nc(-n2cnc(-c3cccc(S(C)(=O)=O)c3)c2)n1
112 to 113 °C	O=C(CBr)c1cc(OCc2ccccc2)c(OCc2ccccc2)c(OCc2ccccc2)c1
218 to 222 °C	CN(CCC#N)c1nc(Nc2cccc(NS(C)(=O)=O)c2)nc2[nH]cnc12
206 °C	CC(C)c1ccc2nc(C(F)(F)F)c(C(=O)O)c(O)c2c1

melting point	Compound
78 to 81 °C	Cc1ccccc1COC(=O)NC(CO)Cc1ccc(O)cc1 (configuration not stated)
147 °C	CN1CCc2c(c(Br)cc3nc(OCc4ccccc4)c(OCc4ccccc4)nc23)C1
115 to 117 °C	OC(c1ccc(OCc2ccccc2)cc1)C(F)(F)F (configuration not stated)
94 to 95.5 °C	c1ccc(CN2CCN(Cc3ccccc3)[C@@H](CCc3cccnc3)C2)cc1
145 to 147 °C	O=C(O)c1ccccc1OCCN1CCC(c2cn(CC3CC3)c3ccccc23)CC1
296 to 300 °C	CC1(C)CC(=O)C2=C(C1)NC1=C(C(=O)CC(C)(C)C1)C2c1ccc(C(F)(F)F)c(F)c1
119 to 124 °C	CCCc1c(OCCCCCOc2ccc(OCCCC(=O)O)cc2CCC(=O)O)ccc2c1OCCC2=O
129 to 130 °C	CCC(=O)Nc1c(C(=O)c2cccc(Cl)c2)[nH]c2cc(Cl)ccc12
170 to 172 °C	CCOC(=O)c1cc2c(C)c(-c3cccc(Cl)c3)c(=O)oc2nc1C(=O)OCC
49.5 to 51.5 °C	CC(=O)CC(=O)OCCCOC(=O)c1ccc(OCCn2ccnc2)cc1
176 to 177 °C	CCOC(=O)COc1ccc(SCc2ccc3nc(-c4ccc(C(F)(F)F)cc4)sc3c2)cc1C
209 to 211 °C	COC(=O)c1sc2c(c1N=C1CCCN1C)c1ccccc1c(=O)n2-c1ccccc1C
178 to 180 °C	O=C1CCC(N2C(=O)c3ccc(CNC(=O)c4ccc(Cl)cc4)cc3C2=O)C(=O)N1 (configuration not stated)
263 to 270 °C	Nc1c(C(=O)c2cccc(C(=O)O)c2)[nH]c2cc(Cl)ccc12
154 to 155 °C	Cc1ccc2c(c1)CC(=O)c1cc(CC(=O)O)ccc1O2
219 to 220 °C	O=c1nc(-c2ccccc2)c2cc([N+](=O)[O-])ccc2n1Cc1cccs1
198 to 201 °C	Cc1nc(-n2cccc(OCc3ccccc3)c2=O)sc1C(=O)NCc1ccccc1
156 to 157 °C	COCc1nc2c(NCc3c(C)cccc3C)cc(C(=O)N(C)C)cc2n1C
105 to 108 °C	Cc1ccc(S(=O)(=O)N[C@@H](C)C(=O)N[C@@H](Cc2ccccc2)C(=O)O)cc1

melting point	Compound
92 to 94 °C	COC(=O)c1cccc(Oc2nn(Cc3ccccc3)c3ccccc23)n1
134 to 136 °C	COC(=O)c1ccc(-c2ccc(-c3ccccc3)c(-c3ccc4c(c3)C(C)(C)CCC4(C)C)c2)cc1O
165 °C	CCCCOc1ccc(-c2ccc(=O)[nH]n2)cc1OC
142 °C	CC(C(=O)Cl)c1ccc2c(c1)CCc1ccccc1C2=O (configuration not stated)
181 to 182 °C	CCCOc1ccccc1-c1nc2nc(NCCN(C)C)ncc2c(=O)[nH]1
161 to 162 °C	COc1ccc2c(c1)C(NCCCCc1ncc(Br)cc1C)=NS2(=O)=O
125 to 127 °C	CCCCC(Cc1ccc(OCCNC(=O)c2ccc(-c3ccc(CN(C)C)cc3)cc2)cc1)C(=O)O (configuration not stated)
70 °C	O=C(O)CCOc1ccc(CCNC(=O)C2Cc3ccccc3N2S(=O)(=O)c2ccc(-c3cccc(C(F)(F)F)c3)cc2)cc1 (configuration not stated)
270 to 272 °C	CCCC(=O)c1cnc2c(OC)cccc2c1Nc1ccc(O)cc1
154 to 156 °C	O=C1Nc2c(Cl)cccc2C1(O)c1ccccc1 (configuration not stated)
273 to 277 °C	N#CC(C(=O)Nc1ccccc1)C(=O)c1nn(-c2ccccc2)c2c1Cc1ccccc1-2 (configuration not stated)
202 to 205 °C	O=C(O)CN1C(=O)[C@@H](N[C@@H](CCC2CCCCC2)C(=O)O)COc2ccccc21
95 to 97 °C	CCOC(=O)COc1ccc(C(=O)[C@H](Cc2ccc(OC)cc2)NC(=O)OC(C)(C)C)cc1
125 to 126 °C	CCOC(=O)c1cc(Br)cc2c(=O)c(OCCCN3CCN(Cc4ccc5ccccc5n4)CC3)c(-c3ccccc3)oc12
125 to 126 °C	CCOc1nn(-c2ccc(C(F)(F)F)cc2)cc1CCCOc1ccc(CCC(=O)O)cc1OC
44 to 45 °C	CCOC(=O)C(F)(F)C(I)c1ccc(OC)cc1 (configuration not stated)
160 to 161 °C	CCCCCS(=O)(=O)c1cccc(-c2nc(=O)c3ccccc3s2)n1
218 °C	Cc1cc(-c2ncn3c(C(F)(F)F)cc(-c4ccc(C(F)(F)F)c(C(F)(F)F)c4)nc23)ccn1
